Inconclusive results are not listed. Active and inactive are the calls of the source. No rule for the calls is given here.

We go through 69 compounds from PubChem BioAssay AID2423 (Broad Institute, 2010).

The test system of the experiment is C. albicans CaCi-8 + fluconazole, Alamar Blue growth, 48 h. As to the kind of experiment: resistant C. albicans growth inhibition with fluconazole, dose response, CaCi-8 strain, Alamar Blue fluorescence (AID 2423).
A word on the EC50: it is the concentration needed to bring the measured effect to its halfway point. As to `Cc1ccc(O)c(C2=NNC(c3ccc(Cl)cc3)C2)c1` (centres undefined), the EC50 was 395 nM.
With `COCCNC(=O)CCCn1c(=O)c2cc(OC)c(OC)cc2n(CC(=O)NCCC2=CCCCC2)c1=O` the figure was 5380 nM; with `CCCC(=O)NC(=S)NNC(=O)c1ccc([N+](=O)[O-])cc1`, 4900 nM.
As to `NC1=NC(=O)C(Cc2cccc(Cl)c2Cl)S1` (centres undefined), the EC50 is > 16000 nM (inactive).
With `CNC(=O)COC(=O)c1c2c(nc3ccccc13)CCC2` the figure was > 16000 nM (inactive).
The result for `CC[n+]1c(/C=C2\Sc3ccccc3N2C)ccc2cccc(C)c21` reads less than 120 nM; that for `O=C(N/N=C(\c1ccccc1)c1ccccn1)c1cccc([N+](=O)[O-])c1`, 5310 nM.
With `CC(C)=CCc1c2c(c(O)c3c(=O)c4c(oc13)-c1cc(O)c(O)cc1OC4C=C(C)C)C=CC(C)(C)O2` (centres undefined) the figure was 13000 nM.
Consider `c1ccc(-c2ccccc2OCCCN2CCCCCC2)cc1`, for which the concentration giving a half-maximal response (EC50) was 6610 nM.
The result for `CCC(=O)NC(c1ccccc1OC)c1ccc2cccnc2c1O` (centres undefined) reads 999 nM.
With `Cc1ccc(C2C3=C(CC(C)(C)CC3=O)N=C3c4ccccc4C(=O)C32)cc1` (centres undefined) the figure was 769 nM; with `O=C(N/N=C/c1sc(N2CCCCC2)nc1-c1cccs1)c1cccnc1`, 1470 nM; with `O=C(Oc1c(CN2CCOCC2)cc(Cl)c2cccnc12)c1ccc(F)cc1`, 3110 nM.
With `COc1ccc(/C=N\NC(=O)c2cc(O)c(O)c(O)c2)cc1CN1CCN(c2ccc(F)cc2)CC1` the figure was 1580 nM.
On to `Clc1ccc2c(c1)C(c1cccs1)=NNC(c1cccnc1)=N2`, for which the 50% effective concentration (EC50) is less than 120 nM.
Take `O=C(COc1ccccc1)Nc1nnc(-c2ccc3c(c2)CCCC3)o1`: the concentration giving a half-maximal response (EC50) is 727 nM.
As to `N#Cc1cc(C#N)c(N2CCN(c3cccc(Cl)n3)CC2)nc1N`, the EC50 is 1580 nM.
As to `Clc1ccccc1C(c1ccccc1)(c1ccccc1)n1ccnc1`, the EC50 is 133 nM.
Take `COc1ccc(-n2nc(C(=O)NCC(=O)N3CCN(c4ccc(F)cc4)CC3)c3ccccc3c2=O)c(OC)c1`: the half-maximal effective concentration (EC50) is 773 nM.
As for `Cc1ccc2nc(-c3ccccc3Cl)cc(C(=O)Nc3cc(C)on3)c2c1`, the EC50 is 505 nM.
With `COc1cccc(/C=N/NC(=O)c2c(C)nc3ccc(Cl)cn23)c1O` the figure was 1710 nM; with `N=C1/C(=C/c2cccn2-c2ccc([N+](=O)[O-])cc2)C(=O)N=C2SC=CN12`, > 16000 nM (inactive).
With `COc1ccc(C(=O)NC(=S)NNC(=O)c2ccccc2C)cc1` the figure was 1990 nM; with `CCN(CC)c1ccc(/C=N/NC(=O)c2ccco2)c(O)c1`, 2420 nM; with `O=S(=O)(Nc1nc(-c2ccccc2)cs1)c1cc(Cl)ccc1Cl`, 2790 nM.
As for `O=C(O)c1ccc(NC(=S)NC(=O)c2ccc(-c3ccccc3)cc2)cc1`, the concentration giving a half-maximal response (EC50) is 3350 nM.
With `Cc1c(Cl)ccc(S(=O)(=O)Nc2cccnc2)c1Cl` the figure was > 15000 nM (inactive); with `CC[n+]1c(/C=C/N(C)c2ccccc2)sc2ccc(Cl)cc21`, 3150 nM; with `Cc1ccc2[nH]c(=O)c(C3C(C#N)=C(N)Oc4c3ccc3cccnc43)cc2c1` (centres undefined), 971 nM.
In the case of `O=C(CNc1ccccc1F)N/N=C/C1CC=CCC1` (centres undefined), the EC50 was > 16000 nM (inactive).
With `CN(C)c1cc(N/N=C/c2ccc(Cl)cc2)nc(N(C)C)n1`, the EC50 was 695 nM.
The result for `Cc1cc(O)ccc1NC(=S)NC(=O)c1cncc(Br)c1` reads 727 nM; that for `O=C(C[n+]1ccccc1)N/N=C/c1cccs1`, > 15000 nM (inactive).
For `CC(C)[C@H]1C(=O)O[C@H](C(C)C)C(=O)N(C)[C@@H](C(C)C)C(=O)O[C@H](C(C)C)C(=O)N(C)[C@@H](C(C)C)C(=O)O[C@H](C(C)C)C(=O)N1C`, the EC50 is > 15000 nM (inactive).
With `O=C(NCCNC(=O)C(c1ccccc1)c1ccccc1)c1ccco1` the figure was > 15000 nM (inactive).
Regarding `O=C(NCc1cccnc1)c1ccc(-c2cccc(Cl)c2Cl)o1`, the EC50 was 1760 nM.
The result for `O=C1/C(=C/c2cccnc2)CCc2c1[nH]c1ccccc21` reads 1240 nM; that for `CCOC(=O)c1c(-c2ccccc2)oc2cc(Br)c(O)c(C=O)c12`, 1440 nM.
The result for `Cc1ccc(S(=O)(=O)C(C#N)c2nc3ccccc3nc2N2CCN(C)CC2)cc1C` (centres undefined) reads 16000 nM.
As for `COc1cc(OC)cc(N(C(=O)C2COc3ccccc3O2)C(C(=O)NC2CCCCC2)c2ccc(O)cc2)c1` (centres undefined), the EC50 was > 16000 nM (inactive).
Turning to `Cn1c(=O)cc(OCCCC(=O)Nc2cccnc2)c2ccccc21`, the EC50 is > 16000 nM (inactive).
As for `Cc1ccc2occ(/C=N/NC(=O)c3ccccc3O)c(=O)c2c1`, the half-maximal effective concentration (EC50) is 15100 nM.
With `COC(=O)c1cc(C)sc1NC(=O)c1cccnc1` the figure was 5890 nM; with `CCOc1ccc(-n2c(C)cc(C(=O)CCl)c2C)cc1`, 5790 nM; with `CC1CCN(Cc2c(C(=O)N/N=C/c3cc(Br)ccc3O)nnn2-c2nonc2N)CC1`, 908 nM.
The result for `O=C(CC(NCCN1CCOCC1)C(=O)O)Nc1cccc(Cl)c1` (centres undefined) reads > 16000 nM (inactive).
Take `FC(F)(F)c1ccccc1NC(=S)NN=C1CCCCCC1`: the EC50 is 4950 nM.
The result for `NNC(=S)Nc1cccc(Cl)c1` reads 8450 nM; that for `Cc1ccnc(Sc2ccc([N+](=O)[O-])cc2[N+](=O)[O-])n1`, 964 nM; that for `COC(=O)C1=NN(C(=O)c2ccc(Cl)cc2)C(O)(c2ccccc2)C1` (centres undefined), > 16000 nM (inactive).
With `Cc1nc(SCc2ccc(Cl)c(Cl)c2)ncc1C(=O)O` the figure was > 15000 nM (inactive); with `COc1ccc(-[n+]2c(-c3ccccc3)cc(-c3ccccc3)cc2-c2ccccc2)cc1`, > 15000 nM (inactive); with `CN(C)c1ccc(C(=O)N/N=C/c2cc(Br)cc(Br)c2O)cc1`, 10900 nM.
The result for `CC(C)(C)NC(=S)N/N=C/c1cc(Br)c(O)c(Br)c1` reads > 15000 nM (inactive); that for `Cc1ccc(S(=O)(=O)Nc2ccc(O)c3ncccc23)cc1`, 3310 nM.
For the compound `Cc1ccc(C(=O)CC(=O)c2ccc(C(C)(C)C)cc2)cc1`, the EC50 is 6220 nM.
The result for `Cc1ccc(-n2c(O)c(C=Nc3ccccc3-c3n[nH]c(=S)[nH]c3=O)c3ccccc3c2=O)cc1C` reads 496 nM; that for `Nc1nn2cc(-c3ccc(Br)cc3)nc2c2ccccc12`, 962 nM; that for `CCN=c1scc(C)n1/N=C/c1ccc(O)c(O)c1O`, > 15000 nM (inactive).
With `CCCCCCCNC(=O)COc1ccc2c(c1)C(=O)CC(C)(C)O2` the figure was 1100 nM; with `Oc1ccc(N=Nc2ccc3c(c2)OCCO3)c2ncccc12`, 709 nM.
With `O=C(Nc1nnc(-c2ccco2)o1)c1cccc(Cl)c1` the figure was 859 nM.
As for `Cn1c(/C=N/Nc2nc3ccccc3[nH]2)nc2ccccc21`, the EC50 was > 16000 nM (inactive).
As to `CC1=C(CC[C@@H](C)CO)OC2CC3C4CCC5CC(O)CCC5(C)C4CC(=O)C3(C)C12` (some centres undefined), the 50% effective concentration (EC50) was 135 nM.
The result for `Cc1ccc(C)c(-c2nnc(NC(=O)c3ccco3)o2)c1` reads 957 nM; that for `CN(C)c1ccc(-c2n(C)c3ccccc3[n+]2C)cc1`, 3930 nM.
`CCCC(=O)NC(c1ccccc1Cl)c1ccc2cccnc2c1O` (centres undefined): the concentration giving a half-maximal response (EC50) was 516 nM.
For the compound `CCCCOc1cccc(C(=O)NNC(=S)NC2CCCCC2)c1`, the half-maximal effective concentration (EC50) was 8740 nM.
With `O=c1cc(CSc2ccc(Cl)cc2)nc(-c2ccccn2)[nH]1`, the concentration giving a half-maximal response (EC50) is 531 nM.
